Measured values: patent publication US20060079453A1, “Hla binding peptides and their uses” (priority 2002, published 2006)
Read-outs that look alike come from different tables or passages of the source. No end group written: not given here.

Tests used:
Experiment in all cases: biochemical
Assay type in all cases: binding
HLA-DR DRB5*0101 (DR51) = HLA-DR DRB5*0101 (DR51) (Homo sapiens, UniProt P01903+Q30154)
HLA-DR DRB1*1101 (DR11) = HLA-DR DRB1*1101 (DR11) (Homo sapiens, UniProt P01903+P01911, A100R/A169T/A87E/I96F/K41T/L162R/M171V/P40S/Q125H/Q178H/Q39Y/Q99D/R42S/S66Y/T262R/V115G/W38E)
HLA-DR DRB1*1101 (DR11), sequence (P01903 26-254 limits assumed, other chains not shown): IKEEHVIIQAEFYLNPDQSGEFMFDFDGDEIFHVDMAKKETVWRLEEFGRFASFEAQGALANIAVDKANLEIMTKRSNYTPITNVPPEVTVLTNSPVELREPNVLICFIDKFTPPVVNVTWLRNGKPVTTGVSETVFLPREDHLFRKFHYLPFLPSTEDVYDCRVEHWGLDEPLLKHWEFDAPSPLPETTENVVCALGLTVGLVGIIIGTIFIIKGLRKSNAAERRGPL

HLA-DR DRB3*0101 (DR52) = HLA-DR DRB3*0101 (DR52) (Homo sapiens, UniProt P01903+P79483)
HLA-DR DRB1*0301 (DR3) = HLA-DR DRB1*0301 (DR3) (Homo sapiens, UniProt P01903+P01911, A100K/A102G/A103R/A169T/F55Y/I96L/K41T/L162R/M171V/P40S/Q125H/Q178H/Q39Y/R42S/S66N/T106N/T262R/W38E/Y61H)
HLA-DR DRB1*0301 (DR3), sequence (P01903 26-254 limits assumed, other chains not shown): as above

HLA-DR DRB1*0401 (DR4) = HLA-DR DRB1*0401 (DR4) (Homo sapiens, UniProt P01903+P01911, A100K/A169T/F76Y/I96L/K127E/L162R/M171V/N62H/P40V/Q125Y/R42H/S133A/S149N/S66Y/V115G/V209L/W38E); settings: DRB1 *0401
HLA-DR DRB1*0701 (DR7) = HLA-DR DRB1*0701 (DR7) (Homo sapiens, UniProt P01903+P01911, A100R/A102G/A103Q/D57E/D86V/E43K/F76Y/K127E/L162R/M171V/P40G/Q125H/Q99D/R33Q/R42Y/R54Q/S133A/S66F/T210M/V115G/Y107V/Y59L/Y89S); settings: DRB1 *0701
HLA-DR DRB4*0101 (DR53) = HLA-DR DRB4*0101 (DR53) (Homo sapiens, UniProt P01903+P13762, G164S)
HLA-DR DRB1*1302 (DR13) = HLA-DR DRB1*1302 (DR13) (Homo sapiens, UniProt P01903+P01911, A100E/A169T/K41T/L162R/M171V/P40S/Q125H/Q178H/Q39Y/Q99D/R42S/S66N/T262R/V115G/W38E/Y61H); settings: read-out: DRBI *1302
HLA-DR DRB1*1302 (DR13), sequence (P01903 26-254 limits assumed, other chains not shown): as above

HLA-DR DRB1*1501 (DR15) = HLA-DR DRB1*1501 (DR15) (Homo sapiens, UniProt P01903+P01911); settings: read-out: DRBI *1501

Compound | IC50 (HLA-DR DRB3*0101 (DR52)) [µM] | IC50 (HLA-DR DRB5*0101 (DR51); read-out: DRB5 *0101) [µM] | IC50 (HLA-DR DRB1*1101 (DR11); read-out: DRB1 *1101) [µM] | IC50 (HLA-DR DRB4*0101 (DR53); read-out: DRB4 *0101) [µM] | IC50 (HLA-DR DRB3*0101 (DR52); read-out: DRB3 *0101) [µM] | IC50 (HLA-DR DRB1*1501 (DR15)) [µM] | further results
DIAAKYKELGY | > 25 |  |  |  |  |  | IC50 (HLA-DR DRB5*0101 (DR51); DRB5 *0101): ≥ 200 µM; IC50 (HLA-DR DRB1*1101 (DR11); DRB1 *1101): > 10 µM; IC50 (HLA-DR DRB1*0301 (DR3)): > 900 µM; IC50 (HLA-DR DRB1*0401 (DR4)): > 0.471 µM
GAGPKDNGGACGYKDVDKAP | > 20 |  |  |  |  |  | IC50 (HLA-DR DRB1*0701 (DR7)): > 12.5 µM; IC50 (HLA-DR DRB1*0301 (DR3)): > 30 µM; IC50 (HLA-DR DRB1*0401 (DR4)): > 0.667 µM
CC[C@H](C)[C@H](NC(=O)[C@@H](NC(=O)[C@@H]1CCCN1C(=O)CN)C(C)C)C(=O)N1CCC[C@H]1C(=O)N[C@@H](CCC(N)=O)C(=O)N[C@@H](CC(=O)O)C(=O)N[C@@H](Cc1c[nH]c2ccccc12)C(=O)N[C@@H](CO)C(=O)N[C@H](C(=O)N[C@@H](CCC(=O)O)C(=O)N[C@@H](CS)C(=O)N[C@@H](CCSC)C(=O)N[C@H](C(=O)N[C@H](C(=O)O)[C@@H](C)O)[C@@H](C)O)[C@@H](C)O | 20.3 |  |  |  |  |  | IC50 (HLA-DR DRB4*0101 (DR53); DRB4 *0101): 0.961 µM; IC50 (HLA-DR DRB1*0301 (DR3)): 52.1 µM
MTNLAALFPPEGVSI |  | 141 | 141 | 4.61 | > 8.83 |  | 
SHDLMLLRLSEPAKI |  | 2.03 |  | 0.01 | 5.36 |  | IC50 (HLA-DR DRB1*1302 (DR13)): 0.0018 µM
YKTIAYDEEARR | > 50 |  |  |  |  |  | IC50 (HLA-DR DRB5*0101 (DR51); DRB5 *0101): ≥ 200 µM
FVNQHLTGSHLVEAL |  | > 43.3 | > 10.5 |  | 94.5 | 0.799 | 
VGGVYLLPRRGPRIGV |  | 0.012 | 0.088 | 19.2 | 60.8 | 0.0042 | IC50 (HLA-DR DRB1*1302 (DR13)): > 15.4 µM
HSLFHPEDTGQVFQV |  |  |  |  | 0.553 |  | 
AWYAWRNRCK |  | 0.044 | > 5 |  | > 11.1 |  | 
GAAVVHEIVRSFGTL | 0.788 |  |  |  |  |  | 
VRYTTEGGTKSEVEDVIPEG | > 25 |  |  |  |  |  | IC50 (HLA-DR DRB1*0701 (DR7)): > 12.5 µM; IC50 (HLA-DR DRB1*0301 (DR3)): > 30 µM; IC50 (HLA-DR DRB1*0401 (DR4)): > 0.667 µM
LPSWATEDTMTKIRE |  |  | > 66.7 | > 11.1 | 5.97 | > 45.5 | IC50 (HLA-DR DRB1*1302 (DR13)): > 35 µM
YLVTGERGFFYTKPT |  |  |  | 27.9 | 9.57 | > 21 | 
LGFFPDHQLDPAFRAN |  |  |  |  | 1.45 |  | 
DDYVKQYTKQYTKQNTLKK | > 11.1 |  |  |  |  |  | IC50 (HLA-DR DRB5*0101 (DR51); DRB5 *0101): 0.035 µM; IC50 (HLA-DR DRB1*1101 (DR11); DRB1 *1101): > 1.11 µM; IC50 (HLA-DR DRB1*0401 (DR4)): 0.16 µM
KPAVYTKVVHYRKWI |  | 0.023 |  |  | 7.19 | 0.401 | 
VRVEILRNFYVINRL |  | 0.485 | 0.504 | 0.187 | 80.4 | 0.00104 | IC50 (HLA-DR DRB1*1302 (DR13)): 0.0058 µM
TPDKLTGPFTVRYTTEGGTK | > 25 |  |  |  |  |  | IC50 (HLA-DR DRB1*0701 (DR7)): > 12.5 µM; IC50 (HLA-DR DRB1*0301 (DR3)): > 900 µM; IC50 (HLA-DR DRB1*0401 (DR4)): > 0.667 µM
TLERPKTLSPGKNGV |  | 11.3 | > 52.6 | 25.7 | > 263 | 23.3 | IC50 (HLA-DR DRB1*1302 (DR13)): 0.835 µM
FAGIRRDGLLLRIVD |  |  |  |  | 0.553 | 0.028 | 
QAKKEKLNIWSEDNADSGQ | > 5.56 |  |  |  |  |  | IC50 (HLA-DR DRB1*0701 (DR7)): > 250 µM; IC50 (HLA-DR DRB1*0301 (DR3)): > 900 µM
